Literature values in patent US7884136B2, “Modified-release formulations of a bupropion salt” (Biovail Laboratories International S.R.L., priority 2005, dated 2011).
Where two headings read alike, the source gives them in different places.

Conditions: cited from earlier work
[1] = Mono- and Diglyceride Surfactants
[2] = PEG-Fatty Acid Monoester Surfactants
[3] = PEG-Fatty Acid Diester Surfactants

## CCCCCC(=O)OCC(O)CO (stereo not drawn) [Monocaproin (C6)]
[1]
  HLB: <10

## CCCCCCCCCCCC(=O)OCC(O)CO (stereo not drawn) [Monolaurin]
[1]
  HLB: <10

## PEG 400-1000 monostearate
[2]
  HLB: >10

## PEG-30 glyceryl oleate
PEG Glycerol Fatty Acid Esters
  HLB: >10

## Distearin
[1]
  HLB: <10

## PEG-8 dioleate
[3]
  HLB: 8.8

## CCCCCCCCCCCCCCCCCC(=O)OCC(CO)(CO)COC(=O)CCCCCCCCCCCCCCCCC [Pentaerythrityl distearate]
Transesterification Products of Oils and Alcohols
  HLB: <10

## PEG-30 stearate
[2]
  HLB: >10

## Polyglyceryl-3 oleate
Polyglycerized Fatty Acids
  HLB: 6.5

## CCCCCCCCCCCC(=O)OCC(O)CO (stereo not drawn) [Glyceryl laurate]
[1]
  HLB: 4

## CCCCCCCCCC(=O)OCC(C)OC(=O)CCCCCCCCC (stereo not drawn) [Propylene glycol dicaprate]
Propylene Glycol Fatty Acid Esters
  HLB: >6

## PEG-4 stearate
[2]
  HLB: 6.5

## PEG-40 oleate
[2]
  HLB: 17.4

## CCCCCCCC/C=C\CCCCCCCC(=O)OCC(O)CO (stereo not drawn) [Glyceryl monooleate]
[1]
  HLB: 3-4

## CCCCCCCCCCCCCCCC(=O)OC[C@@H](O)[C@H]1OC[C@H](O)[C@H]1O [Sorbitan monopalmitate]
Sorbitan Fatty Acid Ester Surfactants, as reported by the manufacturer
  HLB: 6.7

## PEG 100, 200, 300 monolaurate
[2]
  HLB: >10

## PEG 400 dioleate
[2]
  HLB: >10

## PEG-100 oleate
[2]
  HLB: 18.8

## Polyglyceryl-10 decaoleate
Polyglycerized Fatty Acids
  HLB: 3.5

## CCCCC/C=C\C/C=C\CCCCCCCC(=O)OC(C)C [Isopropyl linoleate]
Lower Alcohol Fatty Acid Ester Surfactants, as reported by the manufacturer
  HLB: <10

## Polyglyceryl-10 decaisostearate
Polyglycerized Fatty Acids
  HLB: <10

## PEG-9 oleate
[2]
  HLB: >10

## Sucrose monopalmitate
Sugar Ester Surfactants, as reported by the manufacturer
  HLB: >10

## PEG-40 stearate
[2]
  HLB: >10

## PEG-2 oleate
[2]
  HLB: 4.5

## PEG-12 dilaurate
[3]
  HLB: 11.7

## PEG-30 cholestanol
Sterol and Sterol Derivative Surfactants
  HLB: >10

## PEG-50 stearate
[2]
  HLB: >10

## CCCCCCCCCCCC(=O)OCC(O)CO (stereo not drawn) [Glyceryl monolaurate]
[1]
  HLB: 6.8

## CCCCCCCCCCCCOS(=O)(=O)[O-].[Na+] [Sodium lauryl sulfate (dodecyl)]
Ionic Surfactants, as reported by the manufacturer
  HLB: 40
